Article PMC12495412, “Coumarin/nitrogen-bearing heterocyclic hybrid-loaded electrospun PMMA/PVP nanofibrous scaffolds for accelerating topical wound healing rates: synthesis and in vitro bio-evaluation” (RSC Advances, 2025)
In brackets after ≈: the same amount, converted by molar mass.

Key:
Wi-38 cells = assay: MTT cytotoxicity assay, normal cells; type: cell-based; conditions: 48 h; for IC50 Wi-38: normal human lung fibroblast cells
Excerpt: (§1) MTT assay: the normal cell line (Wi-38), colon cancer (Caco-2), lung cancer (A549), and breast cancer (MDA) cell lines were sourced from ATCC, USA. All different cell lines were cultivated and preserved in DMEM medium (SERANA, Germany), accompanied by 10% FBS (Gibco, USA) and 1% Pen/Strep solution (Lonza, USA). The newly prepared derivatives at various doses were considered for their anticancer activity and their safety on normal cells, applying MTT (3-[4, 5-dimethylthiazol]-2, 5-diphenyltetrazolium bromide) methods.[22] At first, all normal and cancer cell lines (1.0 ×10^4) were inoculated in 4 antiseptic 96-well tissue culture microplates and incubated for 24 h in a CO2 incubator. After cell attachments, the prepared derivatives were added to both normal Wi-38 cells at diverse concentrations of (6.25–200 μg mL^−1, 2-fold) and cancer cells at different concentrations of (3.125–100 μg mL^−1, 2-fold) in triplicate and incubated for another 48 h at 37 °C in a CO2 incubator with an adjusted concentration of 5%. After that, the treated cells were cleaned three times with PBS to remove debris and dead cells. Next, 200 μL of 0.5 mg mL^−1 MTT dye solution in PBS was mixed in each well, and the cells were further kept for 3 h at 37 °C in a 5% CO2 incubator. After that, MTT was removed and 200 μL of DMSO was added to each well. The optical density (OD) was recorded at 570 nm via a microplate reader (B.M.G. LabTech, Germany). Basic cells (untreated) were utilized as negative control cells, and 5-fluorouracil (5-FU) was included as a standard chemotherapy drug. The qualified cell viability (%) was evaluated as in equation (eqn (1)):1 Relative cell viability (%) = […] A1 is the OD of the examined derivative, A0 is the OD of the standard, and AU is the OD of the untreated cells.
(§2) Anticancer activity assay: the anticancer effect of each derivative was assessed by evaluating the half-maximal inhibitory concentration (IC50) value via the GraphPad Prism 7.0 software. However, SI (selective index) values of each derivative were estimated by splitting the IC50 value of healthy cells by the IC50 value of malignant cells, as previously reported.[23] The effects of the created derivatives on the morphology of MDA cells were evaluated at IC50 doses and captured by phase-contrast microscopy (Olympus, Germany) in comparison to untreated control cells.

Caco-2 cells = assay: MTT anticancer assay; type: cell-based; conditions: for SI Caco-2: IC50 Wi-38 / IC50 Caco-2
Excerpt: as §1, §2

A549 cells [1] = assay: MTT anticancer assay; type: cell-based, human; conditions: 48 h; for IC50 A549: lung carcinoma cells
Excerpt: as §1, §2

MDA cells = assay: MTT anticancer assay; type: cell-based, human; conditions: 48 h; for IC50 MDA: breast carcinoma cells
Excerpt: as §1, §2

A549 cells [2] = assay: Wound healing scratch (anti-migration) assay; type: cell-based, human; conditions: IC50 doses, 48 h
Experimental: To assess the anti-migration inhibition capability of newly synthesized derivatives, a wound healing technique was employed. A549 cells were planted in 12-well plates and kept alive at 37 °C until they achieved 80–90% fluency. The cell monolayers were smashed with a sterile tip and exposed to the prepared derivatives at IC50 doses. At 0 and 48 h of treatment, the wound closure area was captured and calculated by imaging analysis with the Cell-Sens software (Olympus, Japan).

S. aureus = assay: Agar-well diffusion of synthesized compounds; type: cell-based, Staphylococcus aureus ATCC 25923; conditions: 100 μL of 10 mg mL^−1 per well, 24 h, 37 °C
Excerpt: The antimicrobial activity of the prepared compounds was estimated through an agar-well diffusion method as adapted from the modified Kirby–Bauer protocol.[24] In this test, microbial pathogens were applied, including Staphylococcus aureus ATCC 25923 (S. aureus), Streptococcus mutans ATCC 25175 (S. mutans), Bacillus cereus ATCC 19637 (B. cereus), Bacillus aureus ATCC 25923 (B. aureus), Bacillus epidermidis ATCC 14990 (B. epidermidis), and Bacillus subtilis ATCC 11774 (B. subtilis) as Gram-positive bacteria, and Pseudomonas aeruginosa ATCC 27853 (P. aeruginosa), Klebsiella pneumonia ATCC 13883 (K. pneumonia), and Salmonella typhimurium ATCC 14028 (S. typhimurium), Salmonella pneumoniae ATCC 10031(S. pneumoniae), Escherichia coli ATCC 10536 (E. coli), and Salmonella paratyphi ATCC 9150 (S. paratyphi) as Gram-negative bacteria. Additionally, Candida albicans (ATCC 10231), Candida krusei ATCC 6258 (C. krusei), Candida glabrata ATCC 66032 (C. glabrata), andCandida parapsilosis ATCC 22019 (C. parapsilosis) were applied as models of unicellular fungi. The pre-inoculation cultures of the pathogens were prepared on Muller–Hinton broth and cultivated for 24 h at 37 °C. The agar-well test was prepared on Muller–Hinton agar with 100 μL of each pathogen pre-culture (0.5 McFarland conc.) and uniformly distributed on the plate surface. […]

S. mutans = assay: Agar-well diffusion of synthesized compounds; type: cell-based, Streptococcus mutans ATCC 25175; conditions: 100 μL of 10 mg mL^−1 per well, 24 h, 37 °C
Excerpt: The antimicrobial activity of the prepared compounds was estimated through an agar-well diffusion method as adapted from the modified Kirby–Bauer protocol.[24] In this test, microbial pathogens were applied, including Staphylococcus aureus ATCC 25923 (S. aureus), Streptococcus mutans ATCC 25175 (S. mutans), Bacillus cereus ATCC 19637 (B. cereus), Bacillus aureus ATCC 25923 (B. aureus), Bacillus epidermidis ATCC 14990 (B. epidermidis), and Bacillus subtilis ATCC 11774 (B. subtilis) as Gram-positive bacteria, and Pseudomonas aeruginosa ATCC 27853 (P. aeruginosa), Klebsiella pneumonia ATCC 13883 (K. pneumonia), and Salmonella typhimurium ATCC 14028 (S. typhimurium), Salmonella pneumoniae ATCC 10031(S. pneumoniae), Escherichia coli ATCC 10536 (E. coli), and Salmonella paratyphi ATCC 9150 (S. paratyphi) as Gram-negative bacteria. Additionally, Candida albicans (ATCC 10231), Candida krusei ATCC 6258 (C. krusei), Candida glabrata ATCC 66032 (C. glabrata), andCandida parapsilosis ATCC 22019 (C. parapsilosis) were applied as models of unicellular fungi. The pre-inoculation cultures of the pathogens were prepared on Muller–Hinton broth and cultivated for 24 h at 37 °C. The agar-well test was prepared on Muller–Hinton agar with 100 μL of each pathogen pre-culture (0.5 McFarland conc.) and uniformly distributed on the plate surface. Under aseptic conditions, six wells were created on the agar surface using a sterile corkborer (9 mm). To each well, 100 μL of the prepared compound (10 mg mL^−1) was separately inserted into each plate. All plates were incubated for 24 h at 37 °C; the established inhibition zones (Halo-zones) surrounding the wells indicated positive antimicrobial activity and were stated as the radius of the inhibition zone (mm).

[3] = colon carcinoma cells, MTT, 48 h

Structure (SMILES)	IC50 (Wi-38 cells; WI-38, normal human lung fibroblast cells) [µg/mL]	IC50 (Caco-2 cells; Homo sapiens, Caco-2, colon carcinoma cells, MTT, 48 h) [µg/mL]	SI Caco-2 (Caco-2 cells)	IC50 (A549 cells [1]; Homo sapiens, A549, lung carcinoma cells) [µg/mL]	IC50 (MDA cells; Homo sapiens, Breast carcinoma cell) [µg/mL]	IC50 Wi-38 (Wi-38 cells) [µg/mL]	IC50 Caco-2 (Caco-2 cells; [3]) [µg/mL]	IC50 A549 (A549 cells [1]) [µg/mL]	IC50 MDA (MDA cells) [µg/mL]	Migration inhibition (A549 cells [2]) [%]	Inhibition zone (S. aureus)	Inhibition zone (S. mutans)
O=c1[nH]cc(F)c(=O)[nH]1 [Compound 5-FU, 5-fluorouracil, reference compound]	5.23 ± 0.18 (≈ 40.2 µM)	6.13 ± 0.28 (≈ 47.1 µM)	0.85 ± 0.03	5.74 ± 0.24 (≈ 44.1 µM)	5.89 ± 0.19 (≈ 45.3 µM)							
Nc1ccc(Nc2ccnc3cc(Cl)ccc23)cc1 [Compound A1]			4.59 ± 0.37			175.3 ± 14.08 (≈ 650 µM)	38.23 ± 1.64 (≈ 142 µM)	32.05 ± 2.18 (≈ 119 µM)	14.91 ± 0.96 (≈ 55.3 µM)			
Nc1ccc(Nc2c3ccccc3nc3ccccc23)cc1 [Compound B1]			8.07 ± 0.59			195.0 ± 14.41 (≈ 683 µM)	24.15 ± 1.76 (≈ 84.6 µM)	16.93 ± 1.88 (≈ 59.3 µM)	8.92 ± 0.67 (≈ 31.3 µM)	74.63	about 13 mm	about 13 mm
